# Patent US20200399250A1, “Pyrimidine Derivatives as Tropomyosin Receptor Kinase A (TRKA) Inhibitors” (BIOMED X GMBH, priority 2017, published 2020)
# “And” between values parts separate entries of the source, which are not always exact repeats. Equal entries are not always repeated. “Also recorded” adds a separate entry of the source.
# Assays:
# TrkA = TrkA (Homo sapiens, UniProt P04629); assay: KINOMEscan primary screen against TrkA; format: binding; details: % of control
# Method: Compounds were initially tested in a primary screen against TrkA (at 10 and 100 nM) and AurA (at 100 nM and 1 μM) using the KINOMEscan technology from DiscoverX Corporation, Fremont, Calif., USA (https://www.discoverx.com/services/drug-discovery-development-services/kinase-profiling/kinomescan).
# Results were reported as % of control (% Ctrl.=(test compound signal−positive control signal)/(DMSO signal−positive control signal). KINOMEscan is an active site-directed competition binding assay that quantitatively measures the ability of a compound to compete with an immobilized, active-site directed ligand.
# panel of 97 kinases = assay: Selectivity profiling, scanEDGE kinase panel (KINOMEscan); format: binding; details: 100 nM, cut-off <35% ctrl
# Method: Selectivity profiling was done over a panel of 97 kinases at 100 nM concentration (scanEDGE assay panel from Discover X, which also uses the KINOMEscan technology, whereat KIT(D816V) and KIT (V559D, T6701) were replaced by TrkB and TrkC). […] The employed profiling panel consisted of the following kinases: ABL1(T3151)-phosphorylated, ABL1-nonphosphorylated, ABL1-phosphorylated, ACVR1B, ADCK3, AKT1, AKT2, ALK, AURKA, AURKB, AXL, BMPR2, BRAF, BRAF (V600E), BTK, CDK11, CDK2, CDK3, CDK7, CDK9, CHEK1, CSF1R, CSNK1D, CSNK1G2, DCAMKL1, DYRK1B, EGFR, EGFR (L858R), EPHA2, ERBB2, ERBB4, ERK1, FAK, FGFR2, FGFR3, FLT3, GSK3B, IGF1R, IKK-alpha, IKK-beta, INSR, JAK2 (JH1domain-catalytic), JAK3 (JH1domain-catalytic), JNK1, JNK2, JNK3, KIT, LKB1, MAP3K4, MAPKAPK2, MARK3, MEK1, MEK2, MET, MKNK1, MKNK2, MLK1, p38-alpha, p38-beta, PAK1, PAK2, PAK4, PCTK1, PDGFRA, PDGFRB, PDPK1, PIK3C2B, PIK3CA, PIK3CG, PIM1, PIM2, PIM3, PKAC-alpha, PLK1, PLK3, PLK4, PRKCE, RAF1, RET, RIOK2, ROCK2, RSK2 (Kin. Dom. 1-N-terminal), SNARK, SRC, SRPK3, TGFBR1, TIE2, TRKA, TRKB, TRKC, TSSK1B, TYK2 (JH1domain-catalytic), ULK2, VEGFR2, YANK3, ZAP70
# [1] = biological target: full-length human TrkA receptor (Homo sapiens, UniProt P04629); assay: PathHunter cellular functional assay, antagonism of β-NGF; format: cell-based; details: antagonism at EC80 (0.03 μg/ml) of β-NGF; read-out: Cellular assay [RC50]
# Source text: The two compounds a1 and b7 were additionally tested in a functional assay using the PathHunter® technology (DiscoverX Corporation, Freemont, Calif., USA; https://www.discoverx.com/technologies-platforms/enzyme-fragment-complementation-technoloqy/cell-based-efc-assays/protein-protein-interactions/kinases-cell-based-(rtk-ctk)). In this assay, the full-length human TrkA receptor (i.e. including ligand-binding and kinase domains) is expressed as a C-terminal (intracellular) fusion with a small peptide epitope, called Prolink™ (PK). Furthermore, a SH2 domain containing protein (i.e. Shc1) is co-expressed with a larger Enzyme Acceptor (EA) fragment. Activation of the TrkA receptor by adding the agonist ligand (β-NGF), leads to the auto-phosphorylation of the kinase and subsequent binding of the Shc1-EA protein. That recruitment results in an active B-galactosidase enzyme that is detected by addition of a chemiluminescent substrate.
# Compounds were tested for antagonism using EC80 concentration (i.e. 0.03 μg/ml) of β-NGF. Data was normalized to the maximal and minimal response observed in the presence of EC80 agonist ligand (3-NGF) and vehicle (DMSO, final concentration 1%), respectively.
# TrkA, sequence (P04629 33-796): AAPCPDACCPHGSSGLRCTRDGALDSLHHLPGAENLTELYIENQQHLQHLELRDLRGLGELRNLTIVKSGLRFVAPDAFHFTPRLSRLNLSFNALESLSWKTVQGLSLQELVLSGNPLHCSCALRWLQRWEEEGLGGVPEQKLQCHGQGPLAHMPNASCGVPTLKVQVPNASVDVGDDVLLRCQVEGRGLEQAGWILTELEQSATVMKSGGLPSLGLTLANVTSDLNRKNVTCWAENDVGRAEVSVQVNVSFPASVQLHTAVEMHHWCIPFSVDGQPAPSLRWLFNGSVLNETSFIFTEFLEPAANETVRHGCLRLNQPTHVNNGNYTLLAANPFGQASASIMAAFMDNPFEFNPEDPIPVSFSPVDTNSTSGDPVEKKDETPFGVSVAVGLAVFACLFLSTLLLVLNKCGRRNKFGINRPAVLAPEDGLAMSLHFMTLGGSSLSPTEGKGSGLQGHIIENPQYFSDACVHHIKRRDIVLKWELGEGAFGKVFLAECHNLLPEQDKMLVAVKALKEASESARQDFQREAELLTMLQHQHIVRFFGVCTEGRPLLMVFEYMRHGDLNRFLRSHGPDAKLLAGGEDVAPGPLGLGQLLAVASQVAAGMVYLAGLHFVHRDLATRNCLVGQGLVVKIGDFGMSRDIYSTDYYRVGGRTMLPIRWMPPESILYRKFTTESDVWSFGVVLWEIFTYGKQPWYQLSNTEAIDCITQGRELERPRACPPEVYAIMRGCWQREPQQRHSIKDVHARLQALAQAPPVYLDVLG
# full-length human TrkA receptor, sequence (P04629 33-796): as above
# full-length human TrkA receptor, sequence (P01138 122-241 partner): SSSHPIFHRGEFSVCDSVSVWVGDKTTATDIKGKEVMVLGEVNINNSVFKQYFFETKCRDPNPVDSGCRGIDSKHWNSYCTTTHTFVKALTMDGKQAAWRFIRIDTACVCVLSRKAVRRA
smiles,measurement,setting,value
"CN1CCN(c2cc(Nc3cc(-c4cccc(F)c4)[nH]n3)nc(Sc3ccccc3)n2)CC1 [a1, N-[5-(3-fluorophenyl)-1H-pyrazol-3-yl]-6-(4-methylpiperazin-1-yl)-2-(phenylsulfanyl)pyrimidin-4-amine]",% Ctrl. TrkA @10 nM,TrkA; 10 nM compound,11 % Ctrl.
same,% Ctrl. TrkA @100 nM,TrkA; 100 nM compound,1.9 % Ctrl.
same,# Hits,panel of 97 kinases; N = 92 non-mutant kinases,7
same,List of inhibited kinases,panel of 97 kinases,"TrkA, TrkB, TrkC, FLT3, KIT,; also recorded: PDGFRb, RET"
same,Selectivity Score,panel of 97 kinases; inhibited kinases/tested kinases,0.08 and 0.076
same,IC50,[1],26 nM
